Article PMC4050194 (FEBS Open Bio, 2014)

Target: T1, Cra (FruR) protein of Pseudomonas putida (Cra^PP) (Pseudomonas putida, UniProt Q88PQ6)
T1 sequence (Q88PQ6 1-331): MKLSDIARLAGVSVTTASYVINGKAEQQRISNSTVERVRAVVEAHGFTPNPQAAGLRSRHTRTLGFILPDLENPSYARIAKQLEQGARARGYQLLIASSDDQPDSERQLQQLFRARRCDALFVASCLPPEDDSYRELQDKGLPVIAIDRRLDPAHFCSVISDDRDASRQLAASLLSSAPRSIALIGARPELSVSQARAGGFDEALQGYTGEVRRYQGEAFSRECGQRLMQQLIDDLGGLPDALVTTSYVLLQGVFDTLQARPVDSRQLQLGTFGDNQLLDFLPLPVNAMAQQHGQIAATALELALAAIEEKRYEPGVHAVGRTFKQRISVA
Test: ITC with purified Cra
Type: binding

Structure (SMILES): O=P(O)(O)OCC1(O)O[C@H](CO)[C@@H](O)[C@@H]1O (stereo partly shown) [F1P, fructose 1-phosphate]
- Kd: ~0.2 µM
